Data: PubChem BioAssay AID2060905 (Molecular Pharmacology Branch, DTP, NCI, 2025)

Test system: 282377-053-R-J1-PDC complex spheroid viability
Experiment: Anticancer human tumor 282377-053-R-J1-PDC patient-derived colon adenocarcinoma cell line growth inhibition [RAS]
Conditions: for IC50: curve of first compound; for viability, T/C: stronger effect = lower value
Outline: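 Agents were tested in combination matrices in half-log decrements from a top concentration at or near clinical Cmax (10 microM if undetermined). Targets were multi-cell spheroids of tumour lines plus HUVEC and MSC stromal cells.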
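Also: spheroids exposed to agents for seven days before readout.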
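For viability, T/C in this document: luminescence viability as percent of DMSO vehicle control wells.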

C=CC(=O)N1CCN(c2nc(OCC3CCCN3C)nc3c(F)c(-c4nc(N)cc(C)c4C(F)(F)F)c(Cl)cc23)C(C)C1 (configuration not stated) + CCn1c(-c2cccnc2C(C)OC)c2c3cc(ccc31)N1CCOC(CC(NC(=O)C(C(C)C)N(C)C(=O)C3(F)CCN(C(=O)C#CC(C)(C)N(C)C)CC3)C(=O)N3CCCC(N3)C(=O)OCC(C)(C)C2)C1
IC50 (second compound 0.000949 µM): > 1000 nM
IC50 (second compound 0.003 µM): > 1000 nM
IC50 (second compound 0.00949 µM): > 1000 nM
IC50 (second compound 0.03 µM): > 1000 nM
IC50 (second compound 0.0949 µM): > 1000 nM
IC50 (second compound 0.3 µM): > 1000 nM
viability, T/C (second compound 0.000949 µM, first compound 0.00316 µM): 90.6%
viability, T/C (second compound 0.000949 µM, first compound 0.01 µM): 110%
viability, T/C (second compound 0.000949 µM, first compound 0.0316 µM): 109%
viability, T/C (second compound 0.000949 µM, first compound 0.1 µM): 92.1%
viability, T/C (second compound 0.000949 µM, first compound 0.316 µM): 98%
viability, T/C (second compound 0.000949 µM, first compound 1 µM): 87.1%
viability, T/C (second compound 0.003 µM, first compound 0.00316 µM): 105%
viability, T/C (second compound 0.003 µM, first compound 0.01 µM): 131%
viability, T/C (second compound 0.003 µM, first compound 0.0316 µM): 86.9%
viability, T/C (second compound 0.003 µM, first compound 0.1 µM): 101%
viability, T/C (second compound 0.003 µM, first compound 0.316 µM): 81.2%
viability, T/C (second compound 0.003 µM, first compound 1 µM): 85.3%
viability, T/C (second compound 0.00949 µM, first compound 0.00316 µM): 96.2%
viability, T/C (second compound 0.00949 µM, first compound 0.01 µM): 92.7%
viability, T/C (second compound 0.00949 µM, first compound 0.0316 µM): 83.6%
viability, T/C (second compound 0.00949 µM, first compound 0.1 µM): 88.7%
viability, T/C (second compound 0.00949 µM, first compound 0.316 µM): 81.5%
viability, T/C (second compound 0.00949 µM, first compound 1 µM): 82.8%
viability, T/C (second compound 0.03 µM, first compound 0.00316 µM): 92.9%
viability, T/C (second compound 0.03 µM, first compound 0.01 µM): 97.5%
viability, T/C (second compound 0.03 µM, first compound 0.0316 µM): 86.2%
viability, T/C (second compound 0.03 µM, first compound 0.1 µM): 112%
viability, T/C (second compound 0.03 µM, first compound 0.316 µM): 89.9%
viability, T/C (second compound 0.03 µM, first compound 1 µM): 93.8%
viability, T/C (second compound 0.0949 µM, first compound 0.00316 µM): 90.5%
viability, T/C (second compound 0.0949 µM, first compound 0.01 µM): 104%
viability, T/C (second compound 0.0949 µM, first compound 0.0316 µM): 115%
viability, T/C (second compound 0.0949 µM, first compound 0.1 µM): 109%
viability, T/C (second compound 0.0949 µM, first compound 0.316 µM): 109%
viability, T/C (second compound 0.0949 µM, first compound 1 µM): 96.3%
viability, T/C (second compound 0.3 µM, first compound 0.00316 µM): 90.1%
viability, T/C (second compound 0.3 µM, first compound 0.01 µM): 92.1%
viability, T/C (second compound 0.3 µM, first compound 0.0316 µM): 97.5%
viability, T/C (second compound 0.3 µM, first compound 0.1 µM): 93.3%
viability, T/C (second compound 0.3 µM, first compound 0.316 µM): 113%
viability, T/C (second compound 0.3 µM, first compound 1 µM): 98.2%
